Test results published in patent US20250101034A1, “COMPOSITIONS USEFUL FOR MODULATING SPLICING” (SKYHAWK THERAPEUTICS, INC., priority 2021, published 2025).

Legend:
[1] = tested on: ATXN3 transcripts containing exon 4 (E4E5); assay: ATXN3 quantitative splicing assay (qPCR, SK-N-MC cells); format: cell-based; details: Homo sapiens, 24 h treatment, qPCR E4E5 primers/probe, read-out: ATXN3 Potency - Splicing E4E5 IC50
Method: Human neuroblastoma SK-N-MC cells were plated in 384-well plates at 20,000 cells/well. Twenty-four hours after plating, cells were treated with compounds for 24 h at appropriate concentrations ranging from 30 μM to 0.6 nM (0.3% DMSO). Treated cells were lysed in 15 μL of lysis buffer, and cDNA was synthesized using the Fast Advanced Cells-to-Ct kit. Two μL of each cDNA was used in qPCR reactions to confirm the exon 4 skipped transcripts of ATXN3. A second set of primers/probe E4E5 was used to detect the transcripts containing exon 4. The third set of primers/probe E8E9 was used to detect total gene level of ATXN3. The qPCR reactions were prepared in 384-well plates in 10 μL volume, using TaqMan™ Fast Advanced Master Mix with primers and probes shown in the table below. Reactions were run in a Quant Studio 6 qPCR instrument with default settings.
The primers and probes are listed below in Table 4.

total ATXN3 protein = assay: ATXN3 total protein assay (MSD, SK-N-MC cells); format: cell-based, Human; details: 48 hours incubation, read-out: ATXN3 Potency - Protein IC50
Method: Human neuroblastoma SK-N-MC cells were seeded at 10,000 cells/well in 384 well plates one day prior to compound treatment. The concentrations of compounds were tested at appropriate doses ranging from 30 μM to 0.6 nM. After incubation for 48 hours, the cells were lysed with 25 μL of lysis buffer containing protease inhibitors, and total ATXN3 protein levels were assessed by Mesoscale Discovery (MSD) assay developed with one pair of anti-ATXN3 antibodies. The capture and detect antibodies were raised in mouse and rabbit respectively. Anti-rabbit MSD-ST antibody was used for secondary antibody.
ATXN3 recombinant protein was used for standards. The readouts were captured with 35 μL of MSD read buffer and multi-array 384-well high binding plates.

IC50 [1] [µM] | IC50 (total ATXN3 protein) [µM] | SMILES
10 to 40 | 10 to 40 | Cc1c(C(C)(C)O)sc2c(NCc3cccs3)cnnc12 [Compound 65, 2-{7-methyl-4-[(thiophen-2-ylmethyl)amino]thieno [3,2-c]pyridazin-6-yl}propan-2-ol]
0.501 to 5 | 0.501 to 5 | Cc1c(C[C@@H](N)CC2CC2)sc2c(NCc3cccs3)cnnc12 [Compound 68, 6-[(2S)-2-amino-3-cyclopropylpropyl]-7-methyl-N-[(thiophen-2-yl)methyl]thieno[3,2-c]pyridazin-4-amine]
10 to 40 | 10 to 40 | Cc1c(C[C@@H]2CCN2)sc2c(NCc3cccs3)cnnc12 [Compound 71, 6-{[(2S)-azetidin-2-y1]methyl}-7-methyl-N-[(thiophen-2-yl)methyl]thieno[3,2-c]pyridazin-4-amine]
10 to 40 | 10 to 40 | Cc1c(C[C@H]2CCN2)sc2c(NCc3cccs3)cnnc12 [Compound 72, 6-{[(2R)-azetidin-2-yl]methyl}-7-methyl-N-[(thiophen-2-yl)methyl]thieno[3,2-c]pyridazin-4-amine]
10 to 40 | 10 to 40 | Cc1c(CC2CNC2)sc2c(NCc3cccs3)cnnc12 [Compound 73, 6-[(azetidin-3-yl)methyl]-7-methyl-N-[(thiophen-2-yl)methyl]thieno[3,2-c]pyridazin-4-amine]
0.101 to 0.5 | 0.101 to 0.5 | N[C@@H](CO)Cc1sc2c(NCc3cccs3)cnnc2c1Cl [Compound 91, (2R)-2-amino-3-(7-chloro-4-{[(thiophen-2-yl)methyl]amino}thieno[3,2-c]pyridazin-6-yl)propan-1-ol]
10 to 40 | 10 to 40 | Cc1c(CC2(N)COC2)sc2c(NCc3cccs3)cnnc12 [Compound 92, 6-[(3-aminooxetan-3-yl)methyl]-7-methyl-N-[(thiophen-2-yl)methyl]thieno[3,2-c]pyridazin-4-amine]
5 to 10 | 0.501 to 5 | Cc1c(CC(N)C2COC2)sc2c(NCc3cccs3)cnnc12 (centres unmarked) [Compound 93, 6-[2-amino-2-(oxetan-3-yl)ethyl]-7-methyl-N-[(thiophen-2-yl)methyl]thieno[3,2-c]pyridazin-4-amine]
0.101 to 0.5 | 0.101 to 0.5 | N[C@@H](CO)Cc1sc2c(NCc3cccs3)cnnc2c1Br [Compound 94, (2R)-2-amino-3-(7-bromo-4-{[(thiophen-2-yl)methyl]amino}thieno[3,2-c]pyridazin-6-yl)propan-1-ol]
10 to 40 | 10 to 40 | Cc1c(CC#N)sc2c(NCc3cccs3)cnnc12 [Compound 98, 2-{7-methyl-4-[(thiophen-2-ylmethyl)amino]thieno[3,2-c]pyridazin-6-yl}acetonitrile]
10 to 40 | 10 to 40 | Cc1c([C@H](C)[C@@H](C)N)sc2c(NCc3cccs3)cnnc12 [Compound 99, 6-[(2R,3R)-3-aminobutan-2-yl]-7-methyl-N-[(thiophen-2-yl)methyl]thieno[3,2-c]pyridazin-4-amine]
10 to 40 | 10 to 40 | Cc1c([C@@H](C)[C@@H](C)N)sc2c(NCc3cccs3)cnnc12 [Compound 102, 6-[(2S,3R)-3-aminobutan-2-yl]-7-methyl-N-[(thiophen-2-yl)methyl]thieno[3,2-c]pyridazin-4-amine]
10 to 40 | 10 to 40 | Cc1c(CC(C)CN)sc2c(NCc3cccs3)cnnc12 (centres unmarked) [Compound 104, 6-(3-amino-2-methylpropyl)-7-methyl-N-[(thiophen-2-yl)methyl]thieno[3,2-c]pyridazin-4-amine]
10 to 40 | 10 to 40 | Cc1c(CC(N)=O)sc2c(NCc3cccs3)cnnc12 [Compound 105, 2-(7-methyl-4-{[(thiophen-2-yl)methyl]amino}thieno[3,2-c]pyridazin-6-yl)acetamide]

Further lines, the molecule ahead of its results:

SMILES | IC50 [1] [µM] | IC50 (total ATXN3 protein) [µM]
Cc1c(C[C@H](C)N)sc2c(NCc3ccc(Br)s3)cnnc12 [Compound 62, 6-[(2S)-2-aminopropyl]-N-[(5-bromothiophen-2-yl)methyl]-7-methylthieno[3,2-c]pyridazin-4-amine] | 5 to 10 | 5 to 10
Brc1csc2c(NCc3cccs3)cnnc12 [Compound 63, 7-bromo-N-(thiophen-2-ylmethyl)thieno[3,2-c]pyridazin-4-amine] | 10 to 40 | 10 to 40
Cc1c(C[C@@H](N)C2CC2)sc2c(NCc3ccco3)cnnc12 [Compound 64, 6-[(2R)-2-amino-2-cyclopropylethyl]-N-[(furan-2-yl)methyl]-7-methylthieno[3,2-c]pyridazin-4-amine] | 5 to 10 | 5 to 10
Cc1c(C[C@H](C)N)sc2c(NCc3cccs3)c(Br)nnc12 [Compound 66, 6-[(2S)-2-aminopropyl]-3-bromo-7-methyl-N-[(thiophen-2-yl)methyl]thieno[3,2-c]pyridazin-4-amine] | 10 to 40 | 10 to 40
Clc1csc2c(NCc3cccs3)cnnc12 [Compound 67, 7-chloro-N-[(thiophen-2-yl)methyl]thieno[3,2-c]pyridazin-4-amine] | 10 to 40 | 10 to 40
Cc1c(C[C@H]2CCCN2)sc2c(NCc3cccs3)cnnc12 [Compound 69, 7-methyl-6-[(2R)-pyrrolidin-2-ylmethyl]-N-(thiophen-2-ylmethyl)thieno[3,2-c]pyridazin-4-amine] | 10 to 40 | 10 to 40
COc1ccsc1CNc1cnnc2c(C)c(C[C@H](C)N)sc12 [Compound 74, 6-[(2S)-2-aminopropyl]-N-[(3-methoxythiophen-2-yl)methyl]-7-methylthieno[3,2-c]pyridazin-4-amine] | 10 to 40 | 10 to 40
COc1csc(CNc2cnnc3c(C)c(C[C@H](C)N)sc23)c1 [Compound 75, 6-[(2S)-2-aminopropyl]-N-[(4-methoxythiophen-2-yl)methyl]-7-methylthieno[3,2-c]pyridazin-4-amine] | 10 to 40 | 10 to 40
COc1ccc(CNc2cnnc3c(C)c(C[C@H](C)N)sc23)s1 [Compound 76, 6-[(2S)-2-aminopropyl]-N-[(5-methoxythiophen-2-yl)methyl]-7-methylthieno[3,2-c]pyridazin-4-amine] | 10 to 40 | 10 to 40
C[C@H](N)Cc1sc2c(NCc3cccs3)cnnc2c1C1CC1 [Compound 80, 6-[(2S)-2-aminopropyl]-7-cyclopropyl-N-[(thiophen-2-yl)methyl]thieno[3,2-c]pyridazin-4-amine] | 0.501 to 5 | 0.501 to 5
Cc1c(C[C@H](C)N)sc2c(Nc3cccs3)cnnc12 [Compound 82, 6-[(2S)-2-aminopropyl]-7-methyl-N-(thiophen-2-yl)thieno[3,2-c]pyridazin-4-amine] | 10 to 40 | 10 to 40
COc1nnc2c(C)c(C[C@H](C)N)sc2c1NCc1cccs1 [Compound 86, 6-[(2S)-2-aminopropyl]-3-methoxy-7-methyl-N-[(thiophen-2-yl)methyl]thieno[3,2-c]pyridazin-4-amine] | 10 to 40 | 10 to 40
Cc1csc2c(NCc3cccs3)c(Br)nnc12 [Compound 87, 3-bromo-7-methyl-N-[(thiophen-2-yl)methyl]thieno[3,2-c]pyridazin-4-amine] | 10 to 40 | 10 to 40
Cc1csc2c(NC(=O)c3cccs3)cnnc12 [Compound 89, N-{7-methylthieno[3,2-c]pyridazin-4-yl}thiophene-2-carboxamide] | 10 to 40 | 10 to 40
C[C@H](N)Cc1sc2c(NCc3cccs3)cnnc2c1O [Compound 90, 6-[(2S)-2-aminopropyl]-4-[(thiophen-2-ylmethyl)amino]thieno[3,2-c]pyridazin-7-ol] | 10 to 40 | 10 to 40
N[C@@H](CO)Cc1sc2c(NCc3ccco3)cnnc2c1Br [Compound 95, (2R)-2-amino-3-(7-bromo-4-{[(furan-2-yl)methyl]amino}thieno[3,2-c]pyridazin-6-yl)propan-1-ol] | 0.501 to 5 | 0.101 to 0.5
N[C@@H](CO)Cc1sc2c(NCc3ccco3)cnnc2c1Cl [Compound 96, (2R)-2-amino-3-(7-chloro-4-{[(furan-2-yl)methyl]amino}thieno[3,2-c]pyridazin-6-yl)propan-1-ol] | 0.101 to 0.5 | 0.101 to 0.5
Cc1c(C[C@H](C)N)sc2c(NCc3cccs3)c(F)nnc12 [Compound 97, 6-[(2S)-2-aminopropyl]-3-fluoro-7-methyl-N-[(thiophen-2-yl)methyl]thieno[3,2-c]pyridazin-4-amine] | 0.101 to 0.5 | 0.101 to 0.5
C[C@H](N)Cc1sc2c(NCc3ccco3)cnnc2c1Br [Compound 100, 6-[(2S)-2-aminopropyl]-7-bromo-N-[(furan-2-y1)methyl]thieno[3,2-c]pyridazin-4-amine] | 0.101 to 0.5 | 0.101 to 0.5
C[C@H](N)Cc1sc2c(NCc3ccco3)cnnc2c1Cl [Compound 101, 6-[(2S)-2-aminopropyl]-7-chloro-N-[(furan-2-yl)methyl]thieno[3,2-c]pyridazin-4-amine] | 0.101 to 0.5 | 0.101 to 0.5
